Target: 5-hydroxytryptamine receptor 6 (Homo sapiens, UniProt P50406)
Sequence (P50406 whole entry): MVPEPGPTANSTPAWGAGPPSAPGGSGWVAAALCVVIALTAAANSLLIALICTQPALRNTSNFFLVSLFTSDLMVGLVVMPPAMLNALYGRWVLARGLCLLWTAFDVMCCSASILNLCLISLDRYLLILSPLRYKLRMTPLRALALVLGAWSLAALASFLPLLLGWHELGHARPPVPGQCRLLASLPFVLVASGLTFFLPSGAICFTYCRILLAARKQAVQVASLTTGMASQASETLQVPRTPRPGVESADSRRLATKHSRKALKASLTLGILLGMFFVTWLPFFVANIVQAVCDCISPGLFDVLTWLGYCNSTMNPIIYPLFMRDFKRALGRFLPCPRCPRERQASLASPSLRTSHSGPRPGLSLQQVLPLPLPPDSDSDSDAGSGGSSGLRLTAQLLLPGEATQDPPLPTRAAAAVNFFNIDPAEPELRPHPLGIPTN
Description: Antagonist activity at human recombinant 5HT6 receptor expressed in HEK293 cells assessed as inhibition of serotonin-induced cAMP accumulation after 2 hrs

Ki [nM]	SMILES
115	CSc1nn2cccnc2c1S(=O)(=O)c1ccccc1
1.2	CSc1nn2c(C)cc(C)nc2c1S(=O)(=O)c1ccccc1
16.6	CSc1nn2ccc(C)nc2c1S(=O)(=O)c1ccccc1
16.6	CSc1nn2c(C)ccnc2c1S(=O)(=O)c1ccccc1
0.269	CNc1nn2c(C)cc(COC)nc2c1S(=O)(=O)c1ccccc1
155	COCc1cc(C)nc2c(S(=O)(=O)c3ccccc3)c(SC)nn12
3.24	COCc1cc(C)n2nc(SC)c(S(=O)(=O)c3ccccc3)c2n1
0.759	CSc1nn2c(C)cc(C)nc2c1S(=O)(=O)c1cccc(Cl)c1
1.07	CSc1nn2c(C)cc(C)nc2c1S(=O)(=O)c1cccc(F)c1
6.76	CSc1nn2c(C)cc(C)nc2c1S(=O)(=O)c1ccc(F)cc1
37.2	CSc1nn2c(C)cc(C)nc2c1S(=O)(=O)c1ccc(N(C)C)cc1
44.7	CSc1nn2cccnc2c1S(=O)(=O)c1ccc(F)c(Cl)c1
3.8	CSc1nn2c(C)cc(C)nc2c1S(=O)(=O)c1ccc(F)c(Cl)c1
0.24	CNc1nn2c(C)ccnc2c1S(=O)(=O)c1ccccc1
7.59	CNc1nn2c(COC)cc(C)nc2c1S(=O)(=O)c1ccccc1
0.479	CNc1nn2c(C)cc(CO)nc2c1S(=O)(=O)c1ccccc1
0.186	CNc1nn2c(C)cc(C)nc2c1S(=O)(=O)c1cccc(Cl)c1
0.501	CNc1nn2c(C)cc(C)nc2c1S(=O)(=O)c1cccc(F)c1
11.7	CNc1nn2cccnc2c1S(=O)(=O)c1ccc(F)cc1
2	CNc1nn2c(C)cc(C)nc2c1S(=O)(=O)c1ccc(O)cc1
9.55	CNc1nn2c(C)cc(C)nc2c1S(=O)(=O)c1ccc(OC)cc1

Second part, the molecule before the results:

SMILES	Ki [nM]
CNc1nn2c(CO)cc(C)nc2c1S(=O)(=O)c1ccccc1	0.282
CSc1nn2c(CO)cc(C)nc2c1S(=O)(=O)c1ccccc1	0.562
CSc1nn2c(C)cc(CO)nc2c1S(=O)(=O)c1ccccc1	2.14
CSc1nn2cccnc2c1S(=O)(=O)c1cccc(Cl)c1	15.1
CSc1nn2c(C)cc(C)nc2c1S(=O)(=O)c1ccc(Cl)cc1	3.16
CSc1nn2cccnc2c1S(=O)(=O)c1ccc(F)cc1	132
CSc1nn2c(C)cc(C)nc2c1S(=O)(=O)c1ccc(O)cc1	3.98
COc1ccc(S(=O)(=O)c2c(SC)nn3c(C)cc(C)nc23)cc1	37.2
CSc1nn2ccc(C)nc2c1S(=O)(=O)c1ccc(F)c(Cl)c1	7.94
CNc1nn2cccnc2c1S(=O)(=O)c1ccccc1	3.89
CNc1nn2c(C)cc(C)nc2c1S(=O)(=O)c1ccccc1	0.257
CNc1nn2ccc(C)nc2c1S(=O)(=O)c1ccccc1	1.45
CNc1nn2cccnc2c1S(=O)(=O)c1cccc(Cl)c1	1.17
CNc1nn2c(C)cc(C)nc2c1S(=O)(=O)c1ccc(F)cc1	0.398
CNc1nn2c(C)cc(C)nc2c1S(=O)(=O)c1ccc(F)c(Cl)c1	0.603

Reference: ChEMBL document CHEMBL1667859 (Bioorg Med Chem, 2011)
